The EC50 is the concentration giving half of the maximal effect.

Like-named read-outs stand apart in the source and are kept apart here.

Assay [1] concerns M. tuberculosis H37Rv_gfp. It is filed as cell-based, Mycobacterium tuberculosis. Particulars: in combination with delamanid 4 ng·mL−1, 5 days at 37° C.
Assay [2] has as its system M. tuberculosis H37Rv_gfp. It is filed as cell-based, Mycobacterium tuberculosis.
The mark [3] stands for this setting: in combination with pretomanid 20 ng·mL−1, 5 days at 37° C., […], read-out: EC50 H37Rv_gfp.
Setting [4] is: in combination with pretomanid, unit inferred, read-out: average EC50 H37Rv_gfp.

Take `Cc1ccc2nc(NC(=O)[C@@H]3C4C=CC(C4)[C@@H]3C(=O)O)sc2c1` (mixture of isomers) [Example 1, 3-[(6-methyl-1,3-benzothiazol-2-yl)carbamoyl]bicyclo[2.2.1]hept-5-ene-2-carboxylic acid]: the EC50 was 310 nM in assay [1] and 1000 to 5000 nM in assay [2] (setting [3]).
In the case of `Cc1ccc2nc(N3C(=O)[C@@H]4[C@H](C3=O)[C@@H]3C=C[C@H]4C3)sc2c1` [Example 2, (1R,2S,6R,7S)-4-(6-methyl-1,3-benzothiazol-2-yl)-4-azatricyclo[5.2.1.02,6]dec-8-ene-3,5-dione], the results for the EC50 in assay [1] and in assay [2] (setting [3]) were 420 nM and below 1000 nM, respectively.
In the case of `O=C(Nc1nc2ccc(Oc3ccccc3)cc2s1)[C@@H]1C2C=CC(C2)[C@@H]1C(=O)O` (stereo partly drawn) [Example 18, [2-hydroxy-1,1-bis(hydroxymethyl)ethyl]ammonium: (1R,2S,3R,4S)-3-[(6-phenoxy-1,3-benzothiazol-2-yl)carbamoyl]bicyclo[2.2.1]hept-5-ene-2-carboxylate], the EC50 was 160 nM in assay [1] and below 1000 nM in assay [2] (setting [3]).
For the compound `O=C(Nc1nc2ccc(Oc3cc(C(F)(F)F)ccn3)cc2s1)[C@@H]1C2C=CC(C2)[C@@H]1C(=O)O` (some centres unmarked) [Example 27, 3-[[6-[[4-(trifluoromethyl)-2-pyridyl]oxy]-1,3-benzothiazol-2-yl]carbamoyl]bicyclo[2.2.1]hept-5-ene-2-carboxylic acid], the EC50 in assay [1] was 150 nM; in assay [2] (setting [3]), below 1000 nM; in assay [2] (setting [4]), 110 nM.
Take `C#CCOc1ccc2nc(N3C(=O)[C@@H]4[C@H](C3=O)[C@@H]3C=C[C@H]4C3)sc2c1` [Example 73, (1R,2S,6R,7S)-4-(6-prop-2-ynoxy-1,3-benzothiazol-2-yl)-4-azatricyclo[5.2.1.02,6]dec-8-ene-3,5-dione]: the EC50 in assay [2] (setting [3]) was below 1000 nM.
Consider `O=C1[C@@H]2C3C=CC(C3)[C@@H]2C(=O)N1c1nc2c(O)cccc2s1` [Example 74], for which, in assay [2] (setting [3]), the EC50 was below 1000 nM.
On the same count and under the same terms, the value for `C#CCOc1cccc2sc(NC(=O)[C@@H]3C4C=CC(C4)[C@@H]3C(=O)O)nc12` (some centres unmarked) [Example 75, 3-[(4-prop-2-ynoxy-1,3-benzothiazol-2-yl)carbamoyl]bicyclo[2.2.1]hept-5-ene-2-carboxylic acid] was below 1000 nM; that for `C#CCOc1cccc2sc(N3C(=O)[C@@H]4[C@H](C3=O)[C@@H]3C=C[C@H]4C3)nc12` [Example 76, (1R,2S,6R,7S)-4-(4-prop-2-ynoxy-1,3-benzothiazol-2-yl)-4-azatricyclo[5.2.1.02,6]dec-8-ene-3,5-dione] was 10000 to 20000 nM.
For the compound `O=C(Nc1nc2ccc(C#Cc3ccccc3)cc2s1)[C@@H]1C2C=CC(C2)[C@@H]1C(=O)O` (some centres unmarked) [Example 77, 3-[[6-(2-phenylethynyl)-1,3-benzothiazol-2-yl]carbamoyl]bicyclo[2.2.1]hept-5-ene-2-carboxylic acid], the EC50 in assay [2] (setting [3]) is below 1000 nM.
With `CC(C)(C)C#Cc1ccc2nc(NC(=O)[C@@H]3C4C=CC(C4)[C@@H]3C(=O)O)sc2c1` (some centres unmarked) [Example 78, 3-[[6-(3,3-dimethylbut-1-ynyl)-1,3-benzothiazol-2-yl]carbamoyl]bicyclo [2.2.1]hept-5-ene-2-carboxylic acid], the EC50 is below 1000 nM in assay [2] (setting [3]) and 130 nM in assay [2] (setting [4]).
Turning to `O=C(Nc1nc2ccc(C#CC3CC3)cc2s1)[C@@H]1C2C=CC(C2)[C@@H]1C(=O)O` (some centres unmarked) [Example 79, 3-[[6-(2-cyclopropylethynyl)-1,3-benzothiazol-2-yl]carbamoyl]bicyclo[2.2.1]hept-5-ene-2-carboxylic acid], in assay [2] (setting [3]), the EC50 was below 1000 nM.
With `O=C(Nc1nc2ccc(-c3cncnc3)cc2s1)[C@@H]1C2C=CC(C2)[C@@H]1C(=O)O` (some centres unmarked) [Example 80, 3-[(6-pyrimidin-5-yl-1,3-benzothiazol-2-yl)carbamoyl]bicyclo[2.2.1]hept-5-ene-2-carboxylic acid], the EC50 in assay [2] (setting [3]) lay in the range of 10000 to 20000 nM.
For the compound `O=C(Nc1nc2ccc(-c3ccc4ncccc4c3)cc2s1)[C@@H]1C2C=CC(C2)[C@@H]1C(=O)O` (some centres unmarked) [Example 81, 3-[[6-(6-quinolyl)-1,3-benzothiazol-2-yl]carbamoyl]bicyclo[2.2.1]hept-5-ene-2-carboxylic acid], the EC50 in assay [2] (setting [3]) was in the range of 1000 to 5000 nM.
As for `Cc1ccnc(Nc2ccc3nc(NC(=O)[C@@H]4C5C=CC(C5)[C@@H]4C(=O)O)sc3c2)c1` (some centres unmarked) [Example 84, 3-[[6-[(4-methyl-2-pyridyl)amino]-1,3-benzothiazol-2-yl]carbamoyl]bicyclo[2.2.1]hept-5-ene-2-carboxylic acid], in assay [2] (setting [3]), the EC50 fell in the range of 1000 to 5000 nM.
For the compound `O=C(Nc1nc2ccc(Nc3cc(F)ccn3)cc2s1)[C@@H]1C2C=CC(C2)[C@@H]1C(=O)O` (some centres unmarked) [Example 85, 3-[[6-[(4-fluoro-2-pyridyl)amino]-1,3-benzothiazol-2-yl]carbamoyl]bicyclo[2.2.1]hept-5-ene-2-carboxylic acid], the 50% effective concentration (EC50) in assay [2] (setting [3]) is below 1000 nM.
On the same count and under the same terms, to `O=C(Nc1nc2ccc(Nc3ccc(F)cn3)cc2s1)[C@@H]1C2C=CC(C2)[C@@H]1C(=O)O` (some centres unmarked) [Example 86, 3-[[6-[(5-fluoro-2-pyridyl)amino]-1,3-benzothiazol-2-yl]carbamoyl]bicyclo[2.2.1]hept-5-ene-2-carboxylic acid] belongs below 1000 nM.
Still for that read-out and setting: to `O=C1[C@@H]2C3C=CC(C3)[C@@H]2C(=O)N1c1nc2ccc(Nc3ccc(F)cn3)cc2s1` [Example 87, 4-[6-[(5-fluoro-2-pyridyl)amino]-1,3-benzothiazol-2-yl]-4-azatricyclo[5.2.1.02,6]dec-8-ene-3,5-dione] belongs below 1000 nM; to `O=C(Nc1nc2ccc(Nc3cccc(F)n3)cc2s1)[C@@H]1C2C=CC(C2)[C@@H]1C(=O)O` (some centres unmarked) [Example 88, 3-[[6-[(6-fluoro-2-pyridyl)amino]-1,3-benzothiazol-2-yl]carbamoyl]bicyclo[2.2.1]hept-5-ene-2-carboxylic acid], below 1000 nM.
Regarding `O=C1[C@@H]2C3C=CC(C3)[C@@H]2C(=O)N1c1nc2ccc(Nc3cccc(F)n3)cc2s1` [Example 89, 4-[6-[(6-fluoro-2-pyridyl)amino]-1,3-benzothiazol-2-yl]-4-azatricyclo[5.2.1.02,6]dec-8-ene-3,5-dione], in assay [2] (setting [3]), the EC50 was 1000 to 5000 nM.
Consider `O=C1[C@@H]2C3C=CC(C3)[C@@H]2C(=O)N1c1nc2ccc(Nc3ccnc(C(F)(F)F)c3)cc2s1` [Example 90, 4-[6-[[2-(trifluoromethyl)-4-pyridyl]amino]-1,3-benzothiazol-2-yl]-4-azatricyclo[5.2.1.02,6]dec-8-ene-3,5-dione], for which the EC50 in assay [2] (setting [3]) is below 1000 nM.
For `O=C(Nc1nc2ccc(Nc3cncc(C(F)(F)F)c3)cc2s1)[C@@H]1C2C=CC(C2)[C@@H]1C(=O)O` (some centres unmarked) [Example 91, 3-[[6-[[5-(trifluoromethyl)-3-pyridyl]amino]-1,3-benzothiazol-2-yl]carbamoyl]bicyclo[2.2.1]hept-5-ene-2-carboxylic acid], the EC50 in assay [2] (setting [3]) lay within 1000 to 5000 nM.
Take `COc1cc(Nc2ccc3nc(N4C(=O)[C@@H]5C6C=CC(C6)[C@@H]5C4=O)sc3c2)ccn1` [Example 92, 4-[6-[(2-methoxy-4-pyridyl)amino]-1,3-benzothiazol-2-yl]-4-azatricyclo[5.2.1.02,6]dec-8-ene-3,5-dione]: in assay [2] (setting [3]), the EC50 lay in the range of 1000 to 5000 nM.
The same measure, in the same setting: to `O=C(Nc1nc2ccc(Nc3ccc(OC(F)(F)F)cn3)cc2s1)[C@@H]1C2C=CC(C2)[C@@H]1C(=O)O` (some centres unmarked) [Example 93, 3-[[6-[[5-(trifluoromethoxy)-2-pyridyl]amino]-1,3-benzothiazol-2-yl]carbamoyl]bicyclo[2.2.1]hept-5-ene-2-carboxylic acid] belongs below 1000 nM; to `O=C1[C@@H]2C3C=CC(C3)[C@@H]2C(=O)N1c1nc2ccc(Nc3ccc(C(F)(F)F)cn3)cc2s1` [Example 95], below 1000 nM.
Consider `O=C(Nc1nc2ccc(Nc3ccc(C(F)(F)F)cn3)cc2s1)[C@@H]1C2C=CC(C2)[C@@H]1C(=O)O` (some centres unmarked) [Example 96, 3-[[6-[[5-(trifluoromethyl)-2-pyridyl]amino]-1,3-benzothiazol-2-yl]carbamoyl]bicyclo[2.2.1]hept-5-ene-2-carboxylic acid], for which the EC50 in assay [2] (setting [3]) was in the range of 1000 to 5000 nM.
As to `O=C1[C@@H]2C3C=CC(C3)[C@@H]2C(=O)N1c1nc2ccc(Nc3cccc(C(F)(F)F)n3)cc2s1` [Example 97, 4-[6-[[6-(trifluoromethyl)-2-pyridyl]amino]-1,3-benzothiazol-2-yl]-4-azatricyclo[5.2.1.02,6]dec-8-ene-3,5-dione], in assay [2] (setting [3]), the EC50 is below 1000 nM.
Consider `O=C1[C@@H]2C3C=CC(C3)[C@@H]2C(=O)N1c1nc2ccc(Nc3ccnc(F)c3)cc2s1` [Example 98, 4-[6-[(2-fluoro-4-pyridyl)amino]-1,3-benzothiazol-2-yl]-4-azatricyclo[5.2.1.02,6]dec-8-ene-3,5-dione], for which, in assay [2] (read-out: EC50 H37Rv_gfp), the EC50 lay in the range of 5000 to 10000 nM.
On to `O=C(Nc1nc2ccc(Nc3ccnc(F)c3)cc2s1)[C@@H]1C2C=CC(C2)[C@@H]1C(=O)O` (some centres unmarked) [Example 99, 3-[[6-[(2-fluoro-4-pyridyl)amino]-1,3-benzothiazol-2-yl]carbamoyl]bicyclo[2.2.1]hept-5-ene-2-carboxylic acid], for which the EC50 in assay [2] (setting [3]) was in the range of 5000 to 10000 nM.
With `O=C(Nc1nc2ccc(-c3ccc(N4CCCCC4)cc3)cc2s1)[C@@H]1C2C=CC(C2)[C@@H]1C(=O)O` (some centres unmarked) [Example 100], in assay [2] (setting [3]), the EC50 was below 1000 nM.

These data come from patent US20250382273A1 (INSTITUT NATIONAL DE LA SANTE ET DE LA RECHERCHE MEDICALE, priority 2022, published 2025).
